The test system of series [1] is yellow fever virus (YFV). In words: microbe, parasite or virus in culture. In kind it is cell-based. The conditions noted are these: for EC50: read-out: Yellow fever EC50.
Series [2] deals with dengue virus (DENV). In words: microbe, parasite or virus in culture. The series is classed as cell-based. The conditions noted are these: for EC50: read-out: Dengue EC50.
Series [3] in a line: in vitro. As to conditions: chlorocebus sabaeus.
[4] abbreviates: Yellow fever virus, Vero B, 168 h.

Like-named read-outs stand apart in the source and are kept apart here. Where only a bound is given, the exact number is not on record here.

27 compounds from paper PMC4237513 (European Journal of Medicinal Chemistry, 2014) can be followed below.

The EC50 is the concentration that produces a half-maximal response.

Consider `O=C(NCc1ccccc1-c1ccncc1)c1nc[nH]c1C(=O)Nc1ccc(F)cc1` [15c, N^5-(4-fluorophenyl)-N^4-(2-(pyridin-4-yl)benzyl)-1H-imidazole-4,5-dicarboxami-de], for which the EC50 came to 3.9 µM in series [1] (setting [4]); 1.92 µM in series [2] (Dengue virus, Vero B, 168 h); 1.93 µM in series [2]. In series [3] (Dengue CC50), this compound displayed a CC50 at 168 h of 50.1 µM. This compound returned a CC50 in series [3] (Yellow fever CC50) above 120 µM.

On to `Cc1ccc(NC(=O)c2nccnc2C(=O)Nc2ccc(F)cc2)c(-c2cccnc2)c1` [20b, N^2-(4-fluorophenyl)-N^3-(4-methyl-2-(pyridin-3-yl)phenyl) pyrazine-2,3-dicarboxamide], for which the EC50 amounted to 13.1 µM in series [1] (setting [4]) and 0.93 µM in series [2] (Dengue virus, Vero B, 168 h). The “DENV inhibitory activity in words” value in series [2] is recorded as “strongly inhibiting”. In addition, the CC50 in series [3] (Dengue CC50) and in series [3] (Yellow fever CC50) was above 118 µM in each case.

`Cc1ccc(NC(=O)c2nc[nH]c2C(=O)Nc2ccc(F)cc2)c(-c2cc(C)n[nH]2)c1` [15a, N^5-(4-fluorophenyl)-N^4-(4-methyl-2-(3-methyl-1H-pyrazol-5-yl)phenyl)-1H-imidazole-4,5-dicarboxamide]: the concentration giving a half-maximal response (EC50) stood at 3.37 µM in series [1] (setting [4]); 3.47 µM in series [1]; 2.5 µM in series [2] (Dengue virus, Vero B, 168 h). Further, the CC50 in series [3] (Dengue CC50) and in series [3] (Yellow fever CC50) was above 120 µM throughout.

For the compound `O=C(NCc1ccc(-c2ccsc2)cc1)c1nc[nH]c1C(=O)Nc1ccc(F)cc1` [15f, N^5-(4-fluorophenyl)-N^4-(4-(thiophen-3-yl)benzyl)-1H-imidazole-4,5-dicarboxamide], the EC50 in series [1] (setting [4]) is 28.8 µM; in series [2] (Dengue virus, Vero B, 168 h), 33.7 µM. In addition, the CC50 at 168 h in series [3] (Dengue CC50) stood at 20.2 µM. Further, the CC50 in series [3] (Yellow fever CC50) is above 119 µM.

As to `Cc1ccc(NC(=O)c2nccnc2C(=O)Nc2ccc(C)cc2-c2ccncc2)cc1` [20n, N^2-(4-methyl-2-(pyridin-4-yl)phenyl)-N^3-(p-tolyl) pyrazine-2,3-dicarboxamide], the EC50 in series [1] (setting [4]) came to 30.9 µM; in series [2] (Dengue virus, Vero B, 168 h), 11.9 µM. For the same compound, the CC50 in series [3] (Dengue CC50) is above 119 µM; in series [3] (Yellow fever CC50), above 118 µM.

On to `Cc1ccc(NC(=O)c2nc[nH]c2C(=O)NCCc2ccc(F)cc2)c(-c2ccco2)c1` [15n, N^5-(4-fluorophenethyl)-N^4-(2-(furan-2-yl)-4-methylphenyl)-1H-imidazole-4,5-dicarboxamide], for which, in series [2] (Dengue virus, Vero B, 168 h), the EC50 worked out at 3.77 µM. Also, in series [3] (Dengue CC50), the CC50 was above 116 µM.

Regarding `O=C(Nc1ccc(F)cc1)c1nccnc1C(=O)Nc1ccccc1-c1cccnc1` [20e, N^2-(4-fluorophenyl)-N^3-(2-(pyridin-3-yl)phenyl) pyrazine-2,3-dicarboxamide], the EC50 is 47.5 µM in series [1] (setting [4]) and 23.2 µM in series [2] (Dengue virus, Vero B, 168 h). In addition, the CC50 was above 120 µM in series [3] (Dengue CC50) and above 119 µM in series [3] (Yellow fever CC50).

In the case of `O=C(NCc1ccccc1-c1ccsc1)c1nc[nH]c1C(=O)Nc1ccc(F)cc1` [15d, N^5-(4-fluorophenyl)-N^4-(2-(thiophen-3-yl)benzyl)-1H-imidazole-4,5-dicarbox amide], the EC50 in series [1] (setting [4]) was 2.61 µM; in series [2] (Dengue virus, Vero B, 168 h), 8.88 µM. The CC50 at 168 h stood at 17.3 µM in series [3] (Dengue CC50) and 34.5 µM in series [3] (Yellow fever CC50).

Take `Cc1ccc(NC(=O)c2nccnc2C(=O)Nc2ccccc2-c2ccncc2)cc1` [20k, N^2-(2-(pyridin-4-yl)phenyl)-N^3-(p-tolyl) pyrazine-2,3-dicarboxamide]: the EC50 turned out to be 12.5 µM in series [1] (setting [4]) and 4.71 µM in series [2] (Dengue virus, Vero B, 168 h). Besides, the CC50 is above 122 µM in series [3] (Dengue CC50) and above 125 µM in series [3] (Yellow fever CC50).

With `O=C(Nc1ccc(F)cc1)c1nccnc1C(=O)Nc1ccccc1-c1ccncc1` [20d, N^2-(4-fluorophenyl)-N^3-(2-(pyridin-4-yl)phenyl) pyrazine-2,3-dicarboxamide], the EC50 in series [1] (setting [4]) came out at 8.22 µM; in series [2] (Dengue virus, Vero B, 168 h), 11.7 µM. Further, the CC50 in series [3] (Dengue CC50) was above 117 µM; in series [3] (Yellow fever CC50), above 123 µM.

On to `Cc1cnc(NC(=O)c2[nH]cnc2C(=O)Nc2ccccc2)c(-c2ccc(C)s2)c1` [15o, N^5-(5-methyl-3-(5-methylthiophen-2-yl)pyridin-2-yl)-N^4-phenyl-1H-imidazole-4,5-dicarboxamide], for which the EC50 in series [1] (setting [4]) is above 120 µM; in series [2] (Dengue virus, Vero B, 168 h), above 120 µM. For the same compound, the “DENV inhibitory activity in words” value in series [2] was “inactive”. Also, the CC50 at 168 h in series [3] (Dengue CC50) worked out at 26.4 µM. In series [3] (Yellow fever CC50), this compound yielded a CC50 above 119 µM.

For `Cc1ccc(NC(=O)c2[nH]cnc2C(=O)Nc2ccc(C)cc2-c2ccco2)cc1` [15l, N^4-(2-(furan-2-yl)-4-methylphenyl)-N^5-(p-tolyl)-1H-imidazole-4,5-dicarboxamide], the EC50 in series [2] (Dengue virus, Vero B, 168 h) was 3.47 µM. The compound also showed a CC50 in series [3] (Dengue CC50) above 125 µM.

For `Cc1ccc(NC(=O)c2nc[nH]c2C(=O)Nc2ccc(F)cc2)c(-c2ccsc2)c1` [15h, N^5-(4-fluorophenyl)-N^4-(4-methyl-2-(thiophen-3-yl)phenyl)-1H-imidazole-4,5-dicarboxamide], the EC50 in series [1] (setting [4]) was above 119 µM; in series [2] (Dengue virus, Vero B, 168 h), 48.8 µM. In addition, the CC50 is above 117 µM in series [3] (Dengue CC50) and above 119 µM in series [3] (Yellow fever CC50).

With `Cc1ccc(NC(=O)c2nccnc2C(=O)Nc2ccc(F)cc2)c(-c2ccncc2)c1` [20g, N^2-(4-fluorophenyl)-N^3-(4-methyl-2-(pyridin-4-yl)phenyl)pyrazine-2,3-dicarbox amide], the concentration for a half-maximal effect (EC50) is 48.4 µM in series [1] (setting [4]) and above 117 µM in series [2] (Dengue virus, Vero B, 168 h). Besides, the CC50 in series [3] (Dengue CC50) was above 117 µM; in series [3] (Yellow fever CC50) it was above 125 µM.

Consider `O=C(NCc1ccc(-c2cccnc2)cc1)c1nccnc1C(=O)Nc1ccc(F)cc1` [20c, N^2-(4-fluorophenyl)-N^3-(4-(pyridin-3-yl)benzyl) pyrazine-2,3-dicarboxamide], for which the 50% effective concentration (EC50) in series [1] (setting [4]) was 8.9 µM; in series [2] (Dengue virus, Vero B, 168 h) it was 2.99 µM. The CC50 is above 115 µM in series [3] (Dengue CC50) and above 116 µM in series [3] (Yellow fever CC50).

With `Cc1ccc(NC(=O)c2nccnc2C(=O)Nc2ccc(C)cc2-c2cccnc2)cc1` [20i, N^2-(4-methyl-2-(pyridin-3-yl)phenyl)-N^3-(p-tolyl) pyrazine-2,3-dicarboxamide], the EC50 in series [1] (setting [4]) is 18.4 µM; in series [2] (Dengue virus, Vero B, 168 h), 10.6 µM. In addition, the CC50 at 168 h turned out to be 47.5 µM in series [3] (Dengue CC50) and 75.5 µM in series [3] (Yellow fever CC50).

For the compound `O=C(NCc1ccc(-c2ccncc2)cc1)c1nccnc1C(=O)Nc1ccc(F)cc1` [20a, N^2-(4-fluorophenyl)-N^3-(4-(pyridin-4-yl)benzyl) pyrazine-2,3-dicarboxamide], the EC50 stood at 7.49 µM in series [1] (setting [4]) and 0.93 µM in series [2] (Dengue virus, Vero B, 168 h). Moreover, the “fold increase in anti-DENV potency” value in series [2] is listed as 2 fold. Also, the CC50 is above 118 µM in series [3] (Dengue CC50) and above 120 µM in series [3] (Yellow fever CC50).

`Cc1ccc(NC(=O)c2nc[nH]c2C(=O)NCc2ccccc2)c(-c2ccco2)c1` [15m, N^5-benzyl-N^4-(2-(furan-2-yl)-4-methylphenyl)-1H-imidazole-4,5-dicarboxamide]: in series [2], the “DENV inhibitory activity in words” value is “annihilated the inhibitory properties”. Further, the EC50 in series [2] (Dengue virus, Vero B, 168 h) was above 125 µM. Also, the CC50 in series [3] (Dengue CC50) is above 125 µM.

Take `Cc1ccc(NC(=O)c2nc[nH]c2C(=O)Nc2ccc(F)cc2)c(-c2ccco2)c1` [15i, N^5-(4-fluorophenyl)-N^4-(2-(furan-2-yl)-4-methylphenyl)-1H-imidazole-4,5-dicarboxamide]: the EC50 in series [2] (Dengue virus, Vero B, 168 h) was above 124 µM. For the same compound, in series [3] (Dengue CC50), the CC50 was above 124 µM.

For `Cc1ccc(NC(=O)c2nc[nH]c2C(=O)Nc2ccccc2)c(-c2ccsc2)c1` [15j, N^4-(4-methyl-2-(thiophen-3-yl)phenyl)-N^5-phenyl-1H-imidazole-4,5-dicarboxamide], the EC50 in series [1] (setting [4]) was 9.2 µM; in series [2] (Dengue virus, Vero B, 168 h), above 124 µM. Moreover, the CC50 in series [3] (Dengue CC50) was above 124 µM; in series [3] (Yellow fever CC50), above 120 µM.

`Cc1ccc(NC(=O)c2nccnc2C(=O)Nc2ccccc2-c2cccnc2)cc1` [20l, N^2-(2-(pyridin-3-yl)phenyl)-N^3-(p-tolyl) pyrazine-2,3-dicarboxamide]: the EC50 is above 122 µM in series [1] (setting [4]) and 14.6 µM in series [2] (Dengue virus, Vero B, 168 h). The CC50 was above 128 µM in series [3] (Dengue CC50) and above 122 µM in series [3] (Yellow fever CC50).

As for `Cc1ccc(NC(=O)c2nccnc2C(=O)NCc2ccc(-c3cccnc3)cc2)cc1` [20j, N^2-(4-(pyridin-3-yl)benzyl)-N^3-(p-tolyl) pyrazine-2,3-dicarboxamide], the EC50 in series [1] (setting [4]) is 73.1 µM; in series [2] (Dengue virus, Vero B, 168 h), 6.75 µM. Besides, the figures for the CC50 in series [3] (Dengue CC50) and in series [3] (Yellow fever CC50) were above 116 µM and above 124 µM, respectively.

For the compound `Cc1cc(-c2ccccc2NC(=O)c2nc[nH]c2C(=O)Nc2ccc(F)cc2)[nH]n1` [15b, N^5-(4-fluorophenyl)-N^4-(2-(3-methyl-1H-pyrazol-5-yl)phenyl)-1H-imidazole-4,5-dicarboxamide], the EC50 in series [1] (setting [4]) came out at 1.85 µM; in series [2] (Dengue virus, Vero B, 168 h), 6.03 µM. Also, the CC50 at 168 h in series [3] (Dengue CC50) amounted to 21.7 µM. In series [3] (Yellow fever CC50), this compound showed a CC50 above 121 µM.

As for `O=C(NCc1ccccc1-c1ccncc1)c1nccnc1C(=O)Nc1ccc(F)cc1` [20f, N^2-(4-fluorophenyl)-N^3-(2-(pyridin-4-yl)benzyl) pyrazine-2,3-dicarboxamide], the “fold decrease in activity against YFV” value in series [1] is on record as 6 fold. For the same compound, the EC50 in series [1] (setting [4]) was 21.3 µM; in series [2] (Dengue virus, Vero B, 168 h), 40.7 µM. Also, the “fold decrease in activity against DENV” value in series [2] came to 20 fold. The CC50 was above 118 µM in series [3] (Dengue CC50) and above 127 µM in series [3] (Yellow fever CC50).

As for `O=C(NCc1ccc(-c2cccnc2)cc1)c1nc[nH]c1C(=O)Nc1ccc(F)cc1` [15e, N^5-(4-fluorophenyl)-N^4-(4-(pyridin-3-yl)benzyl)-1H-imidazole-4,5-dicarboxamide], the EC50 stood at 11.8 µM in series [1] (setting [4]) and 42.1 µM in series [2] (Dengue virus, Vero B, 168 h). The CC50 in series [3] (Dengue CC50) is above 120 µM; in series [3] (Yellow fever CC50), above 118 µM.

As for `Cc1ccc(NC(=O)c2nccnc2C(=O)NCc2ccc(-c3ccncc3)cc2)cc1` [20h, N^2-(4-(pyridin-4-yl)benzyl)-N^3-(p-tolyl) pyrazine-2,3-dicarboxamide], the EC50 in series [1] (setting [4]) was found to be 36.8 µM; in series [2] (Dengue virus, Vero B, 168 h), 16.6 µM. Also, the CC50 at 168 h in series [3] (Dengue CC50) came to 74.7 µM. In addition, the CC50 in series [3] (Yellow fever CC50) was above 110 µM.

Regarding `Cc1ccc(NC(=O)c2[nH]cnc2C(=O)Nc2ccc(C)cc2-c2ccsc2)cc1` [15k, N^4-(4-methyl-2-(thiophen-3-yl)phenyl)-N^5-(p-tolyl)-1H-imidazole-4,5-dicarboxamide], the EC50 is above 120 µM in series [1] (setting [4]) and 2.02 µM in series [2] (Dengue virus, Vero B, 168 h). Further, the figures for the CC50 in series [3] (Dengue CC50) and in series [3] (Yellow fever CC50) were above 50 µM and above 120 µM, respectively.
